Reference: paper PMC9516332 (Frontiers in Oncology, 2022)
Read-outs that look alike come from different tables or passages of the source.

Test system: 134 cancer cell lines
Test: Cell viability assay (ATPlite, 72 hours), IC50 on cancer cell line panel

CC(C)(C)c1nc(-c2cccc(NS(=O)(=O)c3c(F)cccc3F)c2F)c(-c2ccnc(N)n2)s1 [dabrafenib]
IC50 (HEC-6, read-out: IC50 in cell proliferation assay, HEC-6 cell line (EGFR p.A289V)): > 10 µM | IC50 (Homo sapiens, 769-P, read-out: IC50 in cell proliferation assay, cell line 769-P): 1.05 µM | IC50 (Homo sapiens, 786-0, read-out: IC50 in cell proliferation assay, cell line 786-O): 1.69 µM | IC50 (Homo sapiens, A 172, read-out: IC50 in cell proliferation assay, cell line A-172): > 10 µM | IC50 (Homo sapiens, A204, read-out: IC50 in cell proliferation assay, cell line A-204): 2 µM | IC50 (Homo sapiens, A498, read-out: IC50 in cell proliferation assay, cell line A-498): 0.75 µM | IC50 (Homo sapiens, A549, read-out: IC50 in cell proliferation assay, cell line A-549): 2.65 µM | IC50 (Homo sapiens, A704, read-out: IC50 in cell proliferation assay, cell line A-704): 0.822 µM | IC50 (Homo sapiens, A-375, read-out: IC50 in cell proliferation assay, cell line A-375 (BRAF p.V600E)): 0.071 µM | IC50 (Homo sapiens, A-427, read-out: IC50 in cell proliferation assay, cell line A-427): 2.24 µM | IC50 (Homo sapiens, ACHN, read-out: IC50 in cell proliferation assay, cell line ACHN): 0.598 µM | IC50 (Homo sapiens, AN3-CA, read-out: IC50 in cell proliferation assay, cell line AN3-CA (FGFR2 p.N549K)): 2.62 µM | IC50 (Homo sapiens, ASPC1, read-out: IC50 in cell proliferation assay, cell line AsPC-1): > 10 µM | IC50 (Homo sapiens, AU565, read-out: IC50 in cell proliferation assay, cell line AU565 (ERBB2 amplification)): 0.981 µM | IC50 (Homo sapiens, BT-20, read-out: IC50 in cell proliferation assay, cell line BT-20): > 10 µM | IC50 (Homo sapiens, BT-474, read-out: IC50 in cell proliferation assay, cell line BT-474 (ERBB2 amplification)): > 10 µM | IC50 (Homo sapiens, BT-549, read-out: IC50 in cell proliferation assay, cell line BT-549): 1.53 µM | IC50 (Homo sapiens, BXPC-3, read-out: IC50 in cell proliferation assay, cell line BxPC-3): 0.681 µM | IC50 (Homo sapiens, C-33-A, read-out: IC50 in cell proliferation assay, cell line C-33 A): > 10 µM | IC50 (Homo sapiens, CAL-27, read-out: IC50 in cell proliferation assay, cell line CAL-27): > 10 µM | IC50 (Homo sapiens, CCF-STTG1, read-out: IC50 in cell proliferation assay, cell line CCF-STTG1): > 10 µM | IC50 (Homo sapiens, CCRF-CEM, read-out: IC50 in cell proliferation assay, cell line CCRF-CEM): 1.59 µM | IC50 (Homo sapiens, COLO 205, read-out: IC50 in cell proliferation assay, cell line COLO 205 (BRAF p.V600E)): 0.017 µM | IC50 (Homo sapiens, COLO-829, read-out: IC50 in cell proliferation assay, cell line COLO 829 (BRAF p.V600E)): 0.044 µM | IC50 (Homo sapiens, DLD-1, read-out: IC50 in cell proliferation assay, cell line DLD-1): 1.07 µM | IC50 (Homo sapiens, DU-4475, read-out: IC50 in cell proliferation assay, cell line DU4475 (BRAF p.V600E)): 0.055 µM | IC50 (Homo sapiens, Daoy, read-out: IC50 in cell proliferation assay, cell line Daoy): 0.919 µM | IC50 (Homo sapiens, DoTc2-4510, read-out: IC50 in cell proliferation assay, cell line DoTc2 4510): > 10 µM | IC50 (Homo sapiens, EOL1, read-out: IC50 in cell proliferation assay, cell line EoL-1 (FIP1L1-PDGFRA)): 2.68 µM | IC50 (Homo sapiens, FaDu, read-out: IC50 in cell proliferation assay, cell line FaDu): 2.63 µM | IC50 (Homo sapiens, G-361, read-out: IC50 in cell proliferation assay, cell line G-361 (BRAF p.V600E)): 0.047 µM | IC50 (Homo sapiens, HCC827, read-out: IC50 in cell proliferation assay, cell line HCC827 (EGFR exon19del)): 1.27 µM | IC50 (Homo sapiens, HCC4006, read-out: IC50 in cell proliferation assay, cell line HCC4006 (EGFR exon19del)): > 10 µM | IC50 (Homo sapiens, HCT-15, read-out: IC50 in cell proliferation assay, cell line HCT 15): 1.52 µM | IC50 (Homo sapiens, HCT-116, read-out: IC50 in cell proliferation assay, cell line HCT 116): 1.11 µM | IC50 (Homo sapiens, HEC-1, read-out: IC50 in cell proliferation assay, HEC-1 cell line): 1.26 µM | IC50 (Homo sapiens, HEC-1B, read-out: IC50 in cell proliferation assay, HEC-1-B cell line (EGFR p.A864V)): > 10 µM | IC50 (Homo sapiens, HL-60, read-out: IC50 in cell proliferation assay, HL-60 cell line): > 10 µM | IC50 (Homo sapiens, HT, read-out: IC50 in cell proliferation assay, HT cell line): > 10 µM | IC50 (Homo sapiens, HT-1080, read-out: IC50 in cell proliferation assay, HT-1080 cell line): 0.971 µM | IC50 (Homo sapiens, Hs746T, read-out: IC50 in cell proliferation assay, Hs 746.T cell line (MET exon14skip + amplification)): > 10 µM | IC50 (Homo sapiens, Hs-578T, read-out: IC50 in cell proliferation assay, Hs 578T cell line): 1.11 µM | IC50 (Homo sapiens, HuTu80, read-out: IC50 in cell proliferation assay, HuTu 80 cell line): 2.99 µM | IC50 (Homo sapiens, J82, read-out: IC50 in cell proliferation assay, J82 cell line): > 10 µM | IC50 (Homo sapiens, Jurkat E6.1, read-out: IC50 in cell proliferation assay, Jurkat E6.1 cell line): 1.3 µM | IC50 (Homo sapiens, K562, read-out: IC50 in cell proliferation assay, K-562 cell line): > 10 µM | IC50 (Homo sapiens, KATO III, read-out: IC50 in cell proliferation assay, KATO III cell line (FGFR2 amplification)): 1.77 µM | IC50 (Homo sapiens, KG-1, read-out: IC50 in cell proliferation assay, KG-1 cell line (FGFR1OP2-FGFR1)): 1.21 µM | IC50 (Homo sapiens, KLE, read-out: IC50 in cell proliferation assay, KLE cell line): 1.56 µM | IC50 (Homo sapiens, KMS-11, read-out: IC50 in cell proliferation assay, KMS-11 cell line (FGFR3 p.Y373C)): > 10 µM | IC50 (Homo sapiens, KU812, read-out: IC50 in cell proliferation assay, Ku812 cell line): 8.65 µM | IC50 (Homo sapiens, Kasumi 1, read-out: IC50 in cell proliferation assay, Kasumi-1 cell line (KIT p.N822K)): 9.05 µM | IC50 (Homo sapiens, LC-2-ad, read-out: IC50 in cell proliferation assay, LC-2/ad cell line (CCDC6-RET)): 2.07 µM | IC50 (Homo sapiens, LNCaP-Clone-FGC, read-out: IC50 in cell proliferation assay, LNCaP clone FGC cell line): 2.73 µM | IC50 (Homo sapiens, LS174T, read-out: IC50 in cell proliferation assay, LS174T cell line): > 10 µM | IC50 (Homo sapiens, LS-411N, read-out: IC50 in cell proliferation assay, LS411N cell line (BRAF p.V600E)): 0.022 µM | IC50 (Homo sapiens, LoVo, read-out: IC50 in cell proliferation assay, LoVo cell line): 4.36 µM | IC50 (Homo sapiens, MCF7, read-out: IC50 in cell proliferation assay, MCF-7 cell line): > 10 µM | IC50 (Homo sapiens, MDA-MB-231, read-out: IC50 in cell proliferation assay, MDA-MB-231 cell line): > 10 µM | IC50 (Homo sapiens, MDA-MB-453, read-out: IC50 in cell proliferation assay, MDA-MB-453 cell line): > 10 µM | IC50 (Homo sapiens, MDA-MB-468, read-out: IC50 in cell proliferation assay, MDA-MB-468 cell line): > 10 µM | IC50 (Homo sapiens, MG-63, read-out: IC50 in cell proliferation assay, MG-63 cell line): > 10 µM | IC50 (Homo sapiens, MIA PaCa-2, read-out: IC50 in cell proliferation assay, MIA PaCa-2 cell line): > 10 µM | IC50 (Homo sapiens, MKN-45, read-out: IC50 in cell proliferation assay, MKN45 cell line (MET amplification)): > 10 µM | IC50 (Homo sapiens, MOLM-13, read-out: IC50 in cell proliferation assay, MOLM-13 cell line (FLT3 ITD)): 5.7 µM | IC50 (Homo sapiens, MOLT-4, read-out: IC50 in cell proliferation assay, MOLT-4 cell line): > 10 µM
